Assay results taken from the NIST ThermoML archive (doi:10.1021/je5009334).

Assay: xn = mol fraction of the nth substance listed
Settings: 101 kPa, Liquid; for speed of sound: Sing-around technique in a fixed-path interferometer; for mass density: Vibrating tube method

OCCc1ccccc1 [2-phenylethanol] + CCC(O)CO
Settings	mass density [kg/m3]	speed of sound [m/s]
298.15 K, x1 = 0.1	1000.43	1461.6
298.15 K, x1 = 0.2	1002.46	1471.1
298.15 K, x1 = 0.3	1004.33	1479.4
298.15 K, x1 = 0.4	1006.16	1487.8
298.15 K, x1 = 0.5	1007.9	1495.7
298.15 K, x1 = 0.6	1009.62	1502.9
298.15 K, x1 = 0.7	1011.27	1509.7
298.15 K, x1 = 0.8	1012.87	1515.6
298.15 K, x1 = 0.9	1014.52	1521.3
298.15 K, x1 = 1	1016.14	1526.1
303.15 K, x1 = 0.1	996.641	1446.7
303.15 K, x1 = 0.2	998.651	1456.2
303.15 K, x1 = 0.3	1000.5	1464.1
303.15 K, x1 = 0.4	1002.32	1472.3
303.15 K, x1 = 0.5	1004.07	1480
303.15 K, x1 = 0.6	1005.79	1487.1
303.15 K, x1 = 0.7	1007.45	1494.1
303.15 K, x1 = 0.8	1009.06	1499.7
303.15 K, x1 = 0.9	1010.73	1505.3
303.15 K, x1 = 1	1012.39	1510.5
308.15 K, x1 = 0.1	992.825	1431.8
308.15 K, x1 = 0.2	994.816	1441.2
308.15 K, x1 = 0.3	996.652	1448.9
308.15 K, x1 = 0.4	998.462	1456.9
308.15 K, x1 = 0.5	1000.2	1464.5
308.15 K, x1 = 0.6	1001.93	1471.4
308.15 K, x1 = 0.7	1003.61	1478.4
308.15 K, x1 = 0.8	1005.25	1483.8
308.15 K, x1 = 0.9	1006.92	1489.5
308.15 K, x1 = 1	1008.61	1494.7
313.15 K, x1 = 0.1	988.976	1417.1
313.15 K, x1 = 0.2	990.951	1426.2
313.15 K, x1 = 0.3	992.775	1433.8
313.15 K, x1 = 0.4	994.579	1441.5
313.15 K, x1 = 0.5	996.32	1449
313.15 K, x1 = 0.6	998.053	1455.8
313.15 K, x1 = 0.7	999.73	1462.3
313.15 K, x1 = 0.8	1001.39	1468.1
313.15 K, x1 = 0.9	1003.09	1473.8
313.15 K, x1 = 1	1004.75	1479.2
318.15 K, x1 = 0.1	985.093	1402.3
318.15 K, x1 = 0.2	987.058	1411.3
318.15 K, x1 = 0.3	988.872	1418.7
318.15 K, x1 = 0.4	990.674	1426.3
318.15 K, x1 = 0.5	992.412	1433.5
318.15 K, x1 = 0.6	994.121	1440.5
318.15 K, x1 = 0.7	995.794	1446.4
318.15 K, x1 = 0.8	997.515	1452.4
318.15 K, x1 = 0.9	999.245	1458.1
318.15 K, x1 = 1	1000.93	1463.2
323.15 K, x1 = 0.1	981.261	1388.2
323.15 K, x1 = 0.2	983.126	1396
323.15 K, x1 = 0.3	984.949	1403.8
323.15 K, x1 = 0.4	986.752	1411.3
323.15 K, x1 = 0.5	988.495	1418.6
323.15 K, x1 = 0.6	990.215	1425.2
323.15 K, x1 = 0.7	991.945	1431.3
323.15 K, x1 = 0.8	993.644	1437.1
323.15 K, x1 = 0.9	995.386	1442.8
323.15 K, x1 = 1	997.075	1447.7
